Measured values as given in ChEMBL document CHEMBL1201862, “PubChem BioAssay data set” (2004).
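Compound exposure: 48 hours, 5 concentrations, 96-well plates. At the GI50, growth is halved.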 Calls of active or inactive are those of the source. No stated cut-off is given here; in the data, active = GI50 up to about 1.1 µM and inactive = higher.

Key:
Assay in all cases: NCI anticancer screen, dose series, 48 h
SK-MEL-5 = test system: SK-MEL-5
SR = test system: SR
SF-295 = test system: SF-295
BT-549 = test system: BT-549
NCI/ADR-RES = test system: NCI/ADR-RES
IGROV-1 = test system: IGROV-1
SW-620 = test system: SW-620
TK-10 = test system: TK-10
NCI-H522 = test system: NCI-H522
NCI-H460 = test system: NCI-H460
U-251 = test system: U-251
NCI-H23 = test system: NCI-H23
K562 = test system: K562
HCT-15 = test system: HCT-15
DU-145 = test system: DU-145
UO-31 = test system: UO-31
ACHN = test system: ACHN
KM12 = test system: KM12
NCI-H226 = test system: NCI-H226

Compound	GI50 (SK-MEL-5)	GI50 (SR)	GI50 (SF-295)	GI50 (BT-549)	GI50 (NCI/ADR-RES)	GI50 (IGROV-1)	GI50 (SW-620)	GI50 (TK-10)	GI50 (NCI-H522)	GI50 (NCI-H460)	GI50 (U-251)	GI50 (NCI-H23)	GI50 (K562)	GI50 (HCT-15) [µM]	GI50 (DU-145)	GI50 (UO-31)	GI50 (ACHN)	GI50 (KM12)	GI50 (NCI-H226)
CCCc1c2c3ccccc3nc-2nc2ccccn12	> 100 µM (inactive)	49.1 µM (inactive)	49.8 µM (inactive)	> 100 µM (inactive)	> 100 µM (inactive)	63.5 µM (inactive)	36.4 µM (inactive)	52.7 µM (inactive)	> 100 µM (inactive)	32.8 µM (inactive)	63.7 µM (inactive)	0.863 µM (active)	52.6 µM (inactive)	> 100	> 100 µM (inactive)	56.8 µM (inactive)	46.7 µM (inactive)	49.4 µM (inactive)	
CC(=O)O[C@H]1C(=O)[C@@]2(C)C(C(OC(=O)c3ccccc3)[C@]3(O)CC(OC(=O)C(O)C(NC(=O)c4ccccc4)c4ccc(F)cc4)C(C)=C1C3(C)C)[C@]1(OC(C)=O)CO[C@@H]1C[C@@H]2O (stereo partly specified)	0.00375 µM (active)	< 0.001 µM (active)	0.00401 µM (active)	0.00152 µM (active)	0.647 µM (active)	0.00365 µM (active)	< 0.001 µM (active)	0.0296 µM (active)	< 0.001 µM (active)	< 0.001 µM (active)	0.00124 µM (active)	0.0011 µM (active)	< 0.001 µM (active)	0.0129	0.00126 µM (active)	0.166 µM (active)	0.0139 µM (active)	< 0.001 µM (active)	
CC[C@@H]([C@H](O)c1ccccc1Cl)[N+](=O)[O-]	> 100 µM (inactive)	0.324 µM (active)	> 100 µM (inactive)	> 100 µM (inactive)	> 100 µM (inactive)	> 100 µM (inactive)	42.9 µM (inactive)	> 100 µM (inactive)	90.4 µM (inactive)	> 100 µM (inactive)	> 100 µM (inactive)	> 100 µM (inactive)		1.33	> 100 µM (inactive)	> 100 µM (inactive)	> 100 µM (inactive)	> 100 µM (inactive)	> 100 µM (inactive)
C1COCCN1.CN(C)c1ccc(-c2c(C#N)c(N)nc(S)c2C#N)cc1	44.7 µM (inactive)	23.2 µM (inactive)	61 µM (inactive)	83 µM (inactive)	> 100 µM (inactive)	40.1 µM (inactive)	63 µM (inactive)	> 100 µM (inactive)	29 µM (inactive)	40.2 µM (inactive)	> 100 µM (inactive)	60 µM (inactive)	> 100 µM (inactive)	> 100	> 100 µM (inactive)	64.1 µM (inactive)	> 100 µM (inactive)		22.6 µM (inactive)
O=c1[nH]c2nc3ccccc3c(=O)n2/c1=C/c1ccccc1	48.9 µM (inactive)	> 100 µM (inactive)	> 100 µM (inactive)	17.1 µM (inactive)	43.6 µM (inactive)	17.9 µM (inactive)	17.7 µM (inactive)	53.8 µM (inactive)	17.1 µM (inactive)		29.9 µM (inactive)	30.3 µM (inactive)		29.8	29 µM (inactive)	78 µM (inactive)	47 µM (inactive)	38.5 µM (inactive)	18.7 µM (inactive)
CCOC(=O)CCC(NC(=O)Cc1ccc(Oc2nc3ccccc3nc2-c2ccccc2)cc1)C(=O)OCC (stereo unspecified)	57.9 µM (inactive)	> 100 µM (inactive)	67.1 µM (inactive)	> 100 µM (inactive)	70.8 µM (inactive)		> 100 µM (inactive)	96.4 µM (inactive)	34.6 µM (inactive)	> 100 µM (inactive)	75.9 µM (inactive)	> 100 µM (inactive)	63.2 µM (inactive)	> 100	> 100 µM (inactive)	52.5 µM (inactive)	> 100 µM (inactive)	> 100 µM (inactive)	19.5 µM (inactive)
OC1c2[nH]c3ccccc3c2CCN2CCCCC12 (stereo unspecified)		> 100 µM (inactive)	> 100 µM (inactive)	> 100 µM (inactive)	> 100 µM (inactive)	> 100 µM (inactive)	> 100 µM (inactive)	> 100 µM (inactive)	> 100 µM (inactive)	> 100 µM (inactive)	> 100 µM (inactive)	> 100 µM (inactive)	> 100 µM (inactive)	> 100	> 100 µM (inactive)		> 100 µM (inactive)	> 100 µM (inactive)	> 100 µM (inactive)
CC1(F)C=CC(=O)C=C1	> 100 µM (inactive)	32.6 µM (inactive)	> 100 µM (inactive)	> 100 µM (inactive)	17.6 µM (inactive)		22.2 µM (inactive)	38.9 µM (inactive)	37.4 µM (inactive)	> 100 µM (inactive)	24.7 µM (inactive)	> 100 µM (inactive)	44 µM (inactive)	20	> 100 µM (inactive)	23.6 µM (inactive)	59.6 µM (inactive)	> 100 µM (inactive)	86.9 µM (inactive)
O=C(O)CCc1c2ccc(=O)c(O)c-2oc2c(O)c(O)ccc12	> 100 µM (inactive)	37.2 µM (inactive)	30.7 µM (inactive)	87.5 µM (inactive)	> 100 µM (inactive)	> 100 µM (inactive)	22.2 µM (inactive)	> 100 µM (inactive)	27.4 µM (inactive)	> 100 µM (inactive)	30.1 µM (inactive)	61.4 µM (inactive)	24 µM (inactive)	79.4	> 100 µM (inactive)	> 100 µM (inactive)	39.1 µM (inactive)	29.3 µM (inactive)	
O=C(c1c(Cl)cc(Cl)cc1Cl)N(Cc1cccnc1)C(=S)N(Cc1cccnc1)C(=O)c1c(Cl)cc(Cl)cc1Cl	10.9 µM (inactive)	6.56 µM (inactive)	19.4 µM (inactive)	2.98 µM (inactive)	11.4 µM (inactive)		4.14 µM (inactive)	3.93 µM (inactive)	6.89 µM (inactive)	13.4 µM (inactive)	9.02 µM (inactive)	8.67 µM (inactive)	4.32 µM (inactive)	3.05	4.62 µM (inactive)	5.47 µM (inactive)	19.1 µM (inactive)	2.97 µM (inactive)	19 µM (inactive)
O=C(O)Cc1c(O)ccc2ccccc12	> 100 µM (inactive)	> 100 µM (inactive)	> 100 µM (inactive)	> 100 µM (inactive)	> 100 µM (inactive)	> 100 µM (inactive)	> 100 µM (inactive)	> 100 µM (inactive)	> 100 µM (inactive)	> 100 µM (inactive)	> 100 µM (inactive)	> 100 µM (inactive)	> 100 µM (inactive)	> 100	> 100 µM (inactive)		> 100 µM (inactive)	> 100 µM (inactive)	> 100 µM (inactive)
